In EP4273147A1, “SUBSTITUTED SPIROLACTAMS, SALTS THEREOF AND THEIR USE AS HERBICIDALLY ACTIVE SUBSTANCES” (Bayer Aktiengesellschaft, priority 2022, dated 2023):

How the values were obtained:
ABUTH [1] = assay: Herbicidal post-emergence action (Table B1); format: in vivo, Abutilon theophrasti; conditions: treated at one-leaf stage, rated visually after about 3 weeks vs untreated controls (100% = plants have died, 0% = like control plants)
Method: (§1) Seeds of mono- and dicotyledonous weed plants were placed in plastic pots in sandy loam soil (doubly sown with in each case one species of mono- or dicotyledonous weed plants per pot), covered with soil and cultivated in a greenhouse under controlled growth conditions. 2 to 3 weeks after sowing, the test plants were treated at the one-leaf stage. […] After the test plants had been kept in the greenhouse under optimum growth conditions for about 3 weeks, the activity of the preparations was rated visually in comparison to untreated controls. For example, 100% activity = the plants have died, 0% activity = like control plants.

STEME = assay: Herbicidal pre-emergence action (Table A6); format: in vivo, Stellaria media; conditions: visual grading after ca. 3 weeks
In short: (§2)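 Sandy loam filled the pots; weed seeds went in as paired sowings of one grass-type and one broadleaf species, then were covered with soil.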

KCHSC = assay: Herbicidal pre-emergence action (Table A10); format: in vivo, Kochia scoparia; conditions: application rate 1280 g/ha; visual grading after ca. 3 weeks
In short: as §2

ECHCG [2] = assay: Herbicidal pre-emergence action (Table A2); format: in vivo, Echinochloa crus-galli; conditions: visual grading after ca. 3 weeks
In short: as §2

SETVI [3] = assay: Herbicidal pre-emergence action (Table A5); format: in vivo, Setaria viridis; conditions: visual grading after ca. 3 weeks
In short: as §2

ECHCG [4] = assay: Herbicidal post-emergence action (Table B3); format: in vivo, Echinochloa crus-galli; conditions: application rate 1280 g/ha, rated visually after about 3 weeks
In short: (§3)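 Greenhouse pot test in sandy loam; weeds sown, treated post-emergence at one-leaf stage 2–3 weeks after sowing. Activity rated visually about 3 weeks later versus untreated controls, 100% = plants dead, 0% = like controls.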

MATIN [5] = assay: Herbicidal pre-emergence action (Table A4); format: in vivo, Matricaria inodora; conditions: application rate 1280 g/ha; visual grading after ca. 3 weeks
In short: as §2

LOLRI [6] = assay: Herbicidal pre-emergence action (Table A3); format: in vivo, Lolium rigidum; conditions: visual grading after ca. 3 weeks
In short: as §2

POAAN [7] = assay: Herbicidal pre-emergence action (Table A7); format: in vivo, Poa annua; conditions: visual grading after ca. 3 weeks
In short: as §2

DIGSA = assay: Herbicidal pre-emergence action (Table A12); format: in vivo, Digitaria sanguinalis; conditions: visual grading after ca. 3 weeks
In short: as §2

POAAN [8] = assay: Herbicidal post-emergence action (Table B7); format: in vivo, Poa annua
In short: as §3

AMARE [9] = assay: Herbicidal pre-emergence action (Table A8); format: in vivo, Amaranthus retroflexus; conditions: visual grading after ca. 3 weeks vs untreated controls (100% = plants have died off, 0% = as control plants)
Text: (§4) Seeds of mono- and dicotyledonous weed plants were sown in plastic pots (double sowings with one species of mono- and one species of dicotyledonous weed plants per pot), in sandy loam, and covered with soil.

VERPE [10] = assay: Herbicidal pre-emergence action (Table A11); format: in vivo, Veronica persica; conditions: application rate 1280 g/ha; visual grading after ca. 3 weeks
In short: as §2

AMARE [11] = assay: Herbicidal post-emergence action (Table B11); format: in vivo, Amaranthus retroflexus
Method: as §1

SETVI [12] = assay: Herbicidal post-emergence action (Table B8); format: in vivo, Setaria viridis; conditions: application rate 1280 g/ha
Method: as §1

ALOMY [13] = assay: Herbicidal pre-emergence action (Table A9); format: in vivo, Alopecurus myosuroides; conditions: application rate 320 g/ha; visual grading after ca. 3 weeks
In short: as §2

ABUTH [14] = assay: Herbicidal pre-emergence action (Table A1); format: in vivo, Abutilon theophrasti; conditions: application rate 1280 g/ha; visual grading after ca. 3 weeks vs untreated controls (100% = plants have died off, 0% = as control plants)
Text: as §4

VERPE [15] = assay: Herbicidal post-emergence action (Table B10); format: in vivo, Veronica persica; conditions: application rate 1280 g/ha
Method: as §1

MATIN [16] = assay: Herbicidal post-emergence action (Table B6); format: in vivo, Matricaria inodora; conditions: application rate 1280 g/ha; rated visually after about 3 weeks
Method: as §1

ZEAMX [17] = assay: Post-emergence effects on crop plants (Table F1); format: in vivo, Zea mays; conditions: application rate 80 g/ha, crop plant ZEAMX
Text: (§5) 2 to 3 weeks after sowing, the test plants were sprayed in the single-leaf stage.

ALOMY [18] = assay: Herbicidal pre-emergence action, section C (Table C2); format: in vivo, Alopecurus myosuroides; conditions: application rate 320 g/ha; visual grading after ca. 3 weeks
VIOTR = assay: Herbicidal pre-emergence action, section C (Table C12); format: in vivo, Viola tricolor; conditions: application rate 320 g/ha; visual grading after ca. 3 weeks
BRSNW [19] = assay: Pre-emergence effects on crop plants (Table D5); format: in vivo, Brassica napus; conditions: crop plant; application rate 320 g/ha; visual grading after ca. 3 weeks
BRSNW [20] = assay: Post-emergence effects on crop plants (Table F5); format: in vivo, Brassica napus; conditions: application rate 320 g/ha, crop plant BRSNW
Text: as §5

ORYZA [21] = assay: Post-emergence effects on crop plants (Table F3); format: in vivo, Oryza sativa; conditions: application rate 320 g/ha, crop plant ORYZA
Text: as §5

ECHCG [22] = assay: Herbicidal pre-emergence action, section C (Table C6); format: in vivo, Echinochloa crus-galli; conditions: application rate 80 g/ha; visual grading after ca. 3 weeks
Text: Seeds of mono- and dicotyledonous weed plants and crop plants were sown, in plastic or organic planting pots, in sandy loam and covered with soil. The compounds according to the invention, formulated in the form of wettable powders (WP) or as emulsifiable concentrates (EC), were applied to the surface of the covering soil as aqueous suspension or emulsion, with the addition of 0.5% of an additive, at an application rate of 600 1 of water/ha (converted). Following treatment, the pots were placed in a greenhouse and kept under optimum growth conditions for the test plants.

SETVI [23] = assay: Herbicidal pre-emergence action, section C (Table C10); format: in vivo, Setaria viridis; conditions: application rate 320 g/ha; visual grading after ca. 3 weeks
GLXMA = assay: Pre-emergence effects on crop plants (Table D4); format: in vivo, Glycine max; conditions: crop plant; application rate 80 g/ha; visual grading after ca. 3 weeks
LOLRI [24] = assay: Herbicidal pre-emergence action, section C (Table C7); format: in vivo, Lolium rigidum; conditions: application rate 320 g/ha; visual grading after ca. 3 weeks
ZEAMX [25] = assay: Pre-emergence effects on crop plants (Table D1); format: in vivo, Zea mays; conditions: crop plant; application rate 80 g/ha; visual grading after ca. 3 weeks
Text: (§6) Seeds of mono- and dicotyledonous weed plants and crop plants were sown, in plastic or organic planting pots, in sandy loam and covered with soil. The compounds according to the invention, formulated in the form of wettable powders (WP) or as emulsifiable concentrates (EC), were applied to the surface of the covering soil as aqueous suspension or emulsion, with the addition of 0.5% of an additive, at an application rate of 600 1 of water/ha (converted).
(§7) Following treatment, the pots were placed in a greenhouse and kept under optimum growth conditions for the test plants.

ORYZA [26] = assay: Pre-emergence effects on crop plants (Table D3); conditions: crop plant; application rate 80 g/ha; visual grading after ca. 3 weeks
Text: as §6, §7

TRZAS = assay: Post-emergence effects on crop plants (Table F2); format: in vivo, Triticum aestivum; conditions: application rate 320 g/ha, crop plant TRZAS
Text: as §5

ECHCG [27] = assay: Herbicidal post-emergence action, section E (Table E5); format: in vivo, Echinochloa crus-galli; conditions: application rate 320 g/ha; assessed visually after ca. 3 weeks
Text: as §5

Row | SMILES | pre-emergence activity against STEME (STEME; application rate 320 g/ha) | pre-emergence activity against KCHSC (KCHSC) | pre-emergence activity against ECHCG (ECHCG [2]; application rate 1280 g/ha) | pre-emergence activity against SETVI (SETVI [3]; application rate 1280 g/ha) | post-emergence activity against ECHCG (ECHCG [4]) | pre-emergence activity against MATIN (MATIN [5]) | pre-emergence activity against LOLRI (LOLRI [6]; application rate 1280 g/ha) | pre-emergence activity against POAAN (POAAN [7]; application rate 320 g/ha) | post-emergence activity against POAAN (POAAN [8]; application rate 1280 g/ha) | post-emergence activity against AMARE (AMARE [11]; application rate 1280 g/ha) | other results
1 | Cc1ccccc1CN1CCC2(CCCN(Cc3c(F)cccc3F)C2=O)C1=O (racemic) [I-058] | 90% | 90% | 100% | 90% | 90% | 90% | 90% | 100% | 90% |  | post-emergence activity against ABUTH (ABUTH [1]; application rate 1280 g/ha): 90%; pre-emergence activity against DIGSA (DIGSA; application rate 320 g/ha): 90%
2 | O=C1N(Cc2ccccc2)CCC12CCCN(Cc1cccc(F)c1F)C2=O (racemic) [I-084] |  | 90% | 100% | 100% |  | 90% | 100% | 100% |  |  | pre-emergence activity against AMARE (AMARE [9]; application rate 1280 g/ha): 90%; pre-emergence activity against STEME (STEME; application rate 1280 g/ha): 90%; pre-emergence activity against DIGSA (DIGSA; application rate 1280 g/ha): 100%
3 | O=C1N(Cc2c(F)cc(F)cc2F)CCCC12CCCN(Cc1c(F)cc(F)cc1F)C2=O (racemic) [I-198, 2,8-bis[(2,4,6-trifluorophenyl)methyl]-2,8-diazaspiro[5.5]undecane-1,7-dione] | 90% | 90% |  |  |  | 90% |  |  | 90% | 90% | pre-emergence activity against AMARE (AMARE [9]; application rate 320 g/ha): 90%; pre-emergence activity against ECHCG (ECHCG [2]; application rate 320 g/ha): 100%; pre-emergence activity against SETVI (SETVI [3]; application rate 320 g/ha): 100%; pest or weed control at 1280 g/ha (ECHCG [4]; Echinochloa crus-galli, post-emergence, 504 h, read-out: post-emergence activity against ECHCG): 90%; pre-emergence activity against VERPE (VERPE [10]): 90%; post-emergence activity against SETVI (SETVI [12]): 90%; pre-emergence activity against ALOMY (ALOMY [13]): 90%; pest or weed control at 320 g/ha (LOLRI [6]; Lolium rigidum, pre-emergence, 504 h, application rate 320 g/ha, read-out: pre-emergence activity against LOLRI): 100%; pest or weed control at 320 g/ha (POAAN [7]; Poa annua, pre-emergence, 504 h, application rate 320 g/ha, read-out: pre-emergence activity against POAAN): 100%; pre-emergence activity against DIGSA (DIGSA; application rate 320 g/ha): 100%
4 | O=C1N(Cc2ccsc2)CCCC12CCCN(Cc1ccsc1)C2=O (racemic) [I-046] | 100% |  | 100% | 90% |  |  | 90% |  |  |  | pre-emergence activity against AMARE (AMARE [9]; application rate 1280 g/ha): 90%; pre-emergence activity against POAAN (POAAN [7]; application rate 1280 g/ha): 100%; pre-emergence activity against DIGSA (DIGSA; application rate 1280 g/ha): 90%
5 | O=C1N(Cc2cccs2)CCCC12CCCN(Cc1cccc(F)c1F)C2=O (racemic) [I-040] | 90% | 90% | 100% | 100% | 90% | 90% |  | 100% |  | 100% | pre-emergence activity against ABUTH (ABUTH [14]): 90%; post-emergence activity against VERPE (VERPE [15]): 90%; pre-emergence activity against LOLRI (LOLRI [6]; application rate 320 g/ha): 100%; post-emergence activity against POAAN (POAAN [8]; application rate 320 g/ha): 100%
6 | O=C1N(Cc2c(F)cccc2F)CCC12CCN(Cc1c(F)cccc1F)C2=O (racemic) [I-101] |  | 90% | 90% | 90% | 90% | 90% | 90% |  | 90% | 90% | pre-emergence activity against POAAN (POAAN [7]; application rate 1280 g/ha): 100%; post-emergence activity against MATIN (MATIN [16]): 90%
7 | COc1ccccc1CN1CCCC2(CCCN(Cc3ccccc3OC)C2=O)C1=O (racemic) [I-071] |  |  | 100% |  |  |  |  | 100% |  |  | post-emergence activity against ABUTH (ABUTH [1]; application rate 320 g/ha): 90%
8 | COc1ccccc1CN1CCCC2(CCCN(Cc3cccc(F)c3F)C2=O)C1=O (racemic) [I-052] |  |  |  |  | 90% |  |  |  |  |  | post-emergence activity against ZEAMX (ZEAMX [17]): 0%; pre-emergence activity against ALOMY (ALOMY [18]): 90%; pre-emergence activity against VIOTR (VIOTR): 80%; pre-emergence activity against ECHCG (ECHCG [2]; application rate 320 g/ha): 100%; pre-emergence activity against BRSNW (BRSNW [19]): 0%; pre-emergence activity against SETVI (SETVI [3]; application rate 320 g/ha): 100%; post-emergence activity against BRSNW (BRSNW [20]): 0%; post-emergence activity against ORYZA (ORYZA [21]): 20%; pre-emergence activity against ECHCG (ECHCG [22]): 100%; post-emergence activity against AMARE (AMARE [11]; application rate 320 g/ha): 90%; pre-emergence activity against SETVI (SETVI [23]): 100%; pre-emergence activity against GLXMA (GLXMA): 20%; pre-emergence activity against LOLRI (LOLRI [24]): 90%; pre-emergence activity against LOLRI (LOLRI [6]; application rate 320 g/ha): 100%; pre-emergence activity against ZEAMX (ZEAMX [25]): 0%; pre-emergence activity against ORYZA (ORYZA [26]): 20%; post-emergence activity against TRZAS (TRZAS): 0%; post-emergence activity against ECHCG (ECHCG [27]): 80%
